Experimental data: patent US9834558B2, “Substituted bridged urea analogs as sirtuin modulators” (GLAXOSMITHKLINE LLC, priority 2013, dated 2017)
Counter-ions that a name gives are not always drawn. Like-named read-outs stand apart in the source and are kept apart here. Blank lines part the entries; values can stand above or below the compound they belong to.

Target: T1, SIRT1 (Homo sapiens, UniProt Q96EB6)
T1 sequence (Q96EB6 1-747): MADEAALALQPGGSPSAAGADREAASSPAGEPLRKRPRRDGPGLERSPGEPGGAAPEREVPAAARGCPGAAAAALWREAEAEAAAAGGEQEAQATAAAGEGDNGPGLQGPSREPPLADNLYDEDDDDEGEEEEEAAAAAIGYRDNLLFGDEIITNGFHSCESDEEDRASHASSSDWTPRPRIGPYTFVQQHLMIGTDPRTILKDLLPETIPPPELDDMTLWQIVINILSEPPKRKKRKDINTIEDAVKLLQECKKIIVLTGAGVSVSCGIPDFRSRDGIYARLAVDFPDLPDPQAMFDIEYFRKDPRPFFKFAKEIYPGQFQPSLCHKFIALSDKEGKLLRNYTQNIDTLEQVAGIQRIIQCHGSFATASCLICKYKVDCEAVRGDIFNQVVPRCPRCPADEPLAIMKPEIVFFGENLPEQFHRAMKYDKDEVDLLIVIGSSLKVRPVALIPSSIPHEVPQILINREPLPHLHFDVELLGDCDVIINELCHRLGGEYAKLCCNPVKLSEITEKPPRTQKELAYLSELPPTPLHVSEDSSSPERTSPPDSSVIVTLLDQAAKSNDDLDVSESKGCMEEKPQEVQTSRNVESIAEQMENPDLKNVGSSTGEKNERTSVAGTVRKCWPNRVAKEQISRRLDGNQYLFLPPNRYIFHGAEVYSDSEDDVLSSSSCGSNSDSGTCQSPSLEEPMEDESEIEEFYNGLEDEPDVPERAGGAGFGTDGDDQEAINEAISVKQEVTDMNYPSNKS
Test: Trp mass spectrometry assay of SIRT1 activation
Format: biochemical
Settings: for TRP Activity (EC1.5): EC1.5 = concentration that results in 150% activation of SIRT1
Procedure, shortened: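 N-terminal His-tagged human SIRT1 (10 nM, E. coli BL21(DE3)) with 0.5 μM Ac-RHKK(Ac)W-NH2 peptide and 120 μM βNAD+, 25 min at 25 °C in HEPES pH 7.5, formic acid stop. OAADPR or deacetylated peptide quantified by mass spectrometry; EC1.5 (50% activity increase over control) and Percent Maximum Activation reported.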

[1] = Trp peptide assay, maximum activity relative to control (100%), read-out: TRP MAX RESP (percent maximum fold activation)
[2] = concentration giving 150% activation of SIRT1, Trp peptide substrate
[3] = Trp mass spectrometry assay, EC1.5 = concentration of test compound that results in 150% activation of SIRT1
[4] = Trp mass spectrometry assay, concentration of test compound giving 150% activation of SIRT1

TRP Activity (EC1.5) (Trp peptide assay): A (A (EC1.5<1 μM)) | Emax [1]: > 150%
SMILES: O=C(Nc1cncnc1)N1c2nc(-c3ccnc(C(F)(F)F)c3)ccc2N2CCC[C@H]1C2 [(9S)-N-(pyrimidin-5-yl)-5-[2-(trifluoromethyl)pyridin-4-yl]-1,6,8-triazatricyclo[7.3.1.0 {2,7}]trideca-2(7),3,5-triene-8-carboxamide]

Tryp AVG EC1.5 (μM) [2]: A (A (EC1.5<1 μM))
SMILES: O=C(Nc1ccccn1)N1c2nc(-c3cncc(C(F)(F)F)c3)ccc2N2C[C@@H](O)[C@H]1C2 [Example 694]

Tryp AVG EC1.5 (μM) [2]: A (A (EC1.5<1 μM)) | Emax (percent maximum fold activation of SIRT1, Trp peptide substrate, read-out: Tryp % Fold Act): > 150%
SMILES: O=C(Nc1ccnc(OC[C@H](O)CO)n1)N1c2nc(-c3cccc(C(F)(F)F)c3)ccc2N2CC[C@H]1C2 [Example 818]

Tryp AVG EC1.5 (μM) [2]: A (A (EC1.5<1 μM))
SMILES: O=C(Nc1cccc(-c2cnco2)c1)N1c2nc(N3CCCN(CC(F)(F)F)CC3)ccc2N2CC[C@H]1C2 [Example 741]

TRP Activity (EC1.5) (Trp peptide assay): A (A (EC1.5<1 μM)) | Emax [1]: > 150%
SMILES: O=C(NC1CCC1)c1ccc2c(n1)N(C(=O)Nc1ccccn1)[C@H]1CCN2C1 [(9S)-5-N-cyclobutyl-8-N-(pyridin-2-yl)-1,6,8-triazatricyclo[7.2.1.0^{2,7}]dodeca-2(7),3,5-triene-5,8-dicarboxamide]

TRP Activity (EC1.5) (Trp peptide assay): A (A (EC1.5<1 μM)) | Emax [1]: > 150%
SMILES: Cc1cc(-c2ccc3c(n2)N(C(=O)Nc2cncc(F)n2)[C@H]2CCN3C2)ccn1 [(9S)-N-(6-fluoropyrazin-2-yl)-5-(2-methylpyridin-4-yl)-1,6,8-triazatricyclo[7.2.1.0 {2,7}]dodeca-2(7),3,5-triene-8-carboxamide]

Tryp AVG EC1.5 (μM) [3]: B (B (EC1.5 1-25 μM))
SMILES: Cc1c(-c2ccc3c(n2)N(C(=O)Nc2cccnc2)[C@H]2CCN3C2)cnn1C [Example 489]

TRP Activity (EC1.5) (Trp peptide assay): A (A (EC1.5<1 μM)) | Emax [1]: > 150%
SMILES: Cc1cc(-c2ccc3c(n2)N(C(=O)Nc2ccncn2)[C@H]2CCCN3C2)ccn1 [(9S)-5-(2-methylpyridin-4-yl)-N-(pyrimidin-4-yl)-1,6,8-triazatricyclo[7.3.1.0 {2,7}]trideca-2(7),3,5-triene-8-carboxamide]

Tryp AVG EC1.5 (μM) [3]: B (B (EC1.5 1-25 μM))
SMILES: CC(C)n1cc(-c2ccc3c(n2)N(C(=O)Nc2cccnc2)[C@H]2CCN3C2)cn1 [Example 494]

TRP Activity (EC1.5) (Trp peptide assay): B (B (EC1.5 1-25 μM)) | TRP MAX RESP (percent maximum fold activation) (Trp peptide assay, maximum activity relative to control (100%)): A (A (Fold activation ≧150%))
SMILES: O=C(Nc1ccc(F)cn1)N1c2nc(N3CCC[C@H](C(F)(F)F)C3)ccc2N2CCC[C@H]1C2 [drawing 1208, (9S)-N-(5-fluoropyridin-2-yl)-5-[(3S)-3-(trifluoromethyl)piperidin-1-yl]-1,6,8-triazatricyclo[7.3.1.0 {2,7}]trideca-2(7),3,5-triene-8-carboxamide]

TRP Activity (EC1.5) (Trp peptide assay): B (B (EC1.5 1-25 μM)) | Emax [1]: > 150%
SMILES: CCc1ccc(-c2ccc3c(n2)N(C(=O)Nc2cnccn2)[C@H]2CCN3C2)cn1 [(9S)-5-(6-ethylpyridin-3-yl)-N-(pyrazin-2-yl)-1,6,8-triazatricyclo[7.2.1.0 {2,7}]dodeca-2(7),3,5-triene-8-carboxamide]

Tryp AVG EC1.5 (μM) [4]: A (A (EC1.5<1 μM))
SMILES: O=C(Nc1ccncc1)N1c2nc(N3CCCC(C(F)(F)F)C3)ccc2N2CCC[C@H]1C2 (stereo partly drawn) [Example 360]

Tryp AVG EC1.5 (μM) [2]: B (B (EC1.5 1-25 μM))
SMILES: Cc1nc(NC(=O)N2c3nc(-c4cncc(C(F)(F)F)c4)ccc3N3C[C@@H](O)[C@H]2C3)sc1C [Example 697]

TRP Activity (EC1.5) (Trp peptide assay): C (C (EC1.5>25 μM)) | Emax [1]: > 150%
SMILES: Cc1cc(-c2ccc3c(n2)N(C(=O)Nc2ncn(C)n2)[C@H]2CCN3C2)ccn1 [(9S)-N-(1-methyl-1H-1,2,4-triazol-3-yl)-5-(2-methylpyridin-4-yl)-1,6,8-triazatricyclo[7.2.1.0 {2,7}]dodeca-2(7),3,5-triene-8-carboxamide]

Tryp AVG EC1.5 (μM) [4]: A (A (EC1.5<1 μM))
SMILES: Cc1nc(NC(=O)N2c3nc(-c4cccc(N(C)C)c4)ccc3N3CCC[C@H]2C3)sc1C [Example 383]

Tryp AVG EC1.5 (μM) [3]: B (B (EC1.5 1-25 μM))
SMILES: O=C(Nc1cncc(F)c1)N1c2nc(-c3cccnc3)ccc2N2CCC[C@H]1C2 [Example 453]

Tryp AVG EC1.5 (μM) [2]: A (A (EC1.5<1 μM))
SMILES: NCCCCCC(=O)NCc1cccc(NC(=O)N2c3nc(-c4cccc(C(F)(F)F)c4)ccc3N3CC[C@H]2C3)c1 [Example 758]

TRP Activity (EC1.5) (Trp peptide assay): B (B (EC1.5 1-25 μM)) | Emax [1]: > 150%
SMILES: CC1CCN(c2ccc3c(n2)N(C(=O)Nc2cnccn2)[C@H]2CCN3C2)CC1 [(9S)-5-(4-methylpiperidin-1-yl)-N-(pyrazin-2-yl)-1,6,8-triazatricyclo[7.2.1.0 {2,7}]dodeca-2,4,6-triene-8-carboxamide]

TRP Activity (EC1.5) (Trp peptide assay): B (B (EC1.5 1-25 μM)) | Emax [1]: > 150%
SMILES: Cc1cc(-c2ccc3c(n2)N(C(=O)Nc2cnccn2)[C@H]2CCN3C2)cnc1C#N [(9S)-5-(6-cyano-5-methylpyridin-3-yl)-N-(pyrazin-2-yl)-1,6,8-triazatricyclo[7.2.1.0 {2,7}]dodeca-2(7),3,5-triene-8-carboxamide]

Tryp AVG EC1.5 (μM) [2]: A (A (EC1.5<1 μM))
SMILES: O=C(NCc1ncc(-c2cccc(NC(=O)N3c4nc(-c5cccc(C(F)(F)F)c5)ccc4N4CC[C@H]3C4)c2)o1)OCc1ccccc1 [Example 706]

Tryp AVG EC1.5 (μM) [3]: A (A (EC1.5<1 μM))
SMILES: O=C(Nc1cnccn1)N1c2nc(-c3ccc(Cl)c(Cl)c3)ccc2N2CC[C@H]1C2 [Example 461]

Tryp AVG EC1.5 (μM) [3]: B (B (EC1.5 1-25 μM))
SMILES: N#Cc1cncc(-c2ccc3c(n2)N(C(=O)Nc2cncc(F)c2)[C@H]2CCCN3C2)c1 [Example 535]

TRP Activity (EC1.5) (Trp peptide assay): C (C (EC1.5>25 μM)) | Emax [1]: < 150%
SMILES: Cc1cc(-c2ccc3c(n2)N(C(=O)NCCc2ccccn2)[C@H]2CCN3C2)ccn1 [(9S)-5-(2-methylpyridin-4-yl)-N-[2-(pyridin-2-yl)ethyl]-1,6,8-triazatricyclo[7.2.1.0 {2,7}]dodeca-2(7),3,5-triene-8-carboxamide hydrochloride]

Tryp AVG EC1.5 (μM) [3]: B (B (EC1.5 1-25 μM))
SMILES: Cc1ccc(-c2ccc3c(n2)N(C(=O)Nc2ccncn2)[C@H]2CCCN3C2)cn1 [Example 479]

TRP Activity (EC1.5) (Trp peptide assay): A (A (EC1.5<1 μM)) | Emax [1]: > 150%
SMILES: O=C(NCC1CC1)c1ccc2c(n1)N(C(=O)Nc1ccccn1)[C@H]1CCN2C1 [(9S)-5-N-(cyclopropylmethyl)-8-N-(pyridin-2-yl)-1,6,8-triazatricyclo[7.2.1.0 {2,7}]dodeca-2(7),3,5-triene-5,8-dicarboxamide]

Tryp AVG EC1.5 (μM) [2]: C (C (EC1.5>25 μM))
SMILES: C#CCOc1cc(-c2ccc3c(n2)N(C(=O)Nc2cccc(C4(C(F)(F)F)N=N4)c2)[C@H]2CCN3C2)cc(C(F)(F)F)c1 [Example 800]

TRP Activity (EC1.5) (Trp peptide assay): B (B (EC1.5 1-25 μM)) | Emax [1]: > 150%
SMILES: Cc1cc(-c2ccc3c(n2)N(C(=O)Nc2nccc4nccnc24)[C@H]2CCN3C2)ccn1 [(9S)-5-(2-methylpyridin-4-yl)-N-{pyrido[3,4-b]pyrazin-5-yl}-1,6,8-triazatricyclo[7.2.1.0 {2,7}]dodeca-2,4,6-triene-8-carboxamide]

Tryp AVG EC1.5 (μM) [4]: C (C (EC1.5>25 μM))
SMILES: Cc1noc(C)c1-c1ccc2c(n1)N(C(=O)Nc1cnccn1)[C@H]1CCN2C1 [Example 413]

Tryp AVG EC1.5 (μM) [2]: A (A (EC1.5<1 μM))
SMILES: O=C(Nc1cccc(-c2cnco2)c1)N1c2nc(N3CCC[C@@H](C(F)(F)F)C3)ccc2N2CC[C@H]1C2 [Example 717]

Tryp AVG EC1.5 (μM) [2]: A (A (EC1.5<1 μM))
SMILES: C#CCCCNc1nccc(NC(=O)N2c3nc(-c4cccc(C5(C(F)(F)F)N=N5)c4)ccc3N3CC[C@H]2C3)n1 [Example 801]

Tryp AVG EC1.5 (μM) [3]: A (A (EC1.5<1 μM)) | Emax (Trp mass spectrometry assay, percent maximum fold activation of SIRT1, read-out: Tryp % Fold Act): > 150%
SMILES: O=C(CCCC[C@@H]1SC[C@@H]2NC(=O)N[C@@H]21)NCCCCCC(=O)NCc1cn(-c2cccc(NC(=O)N3c4nc(-c5cccc(C(F)(F)F)c5)ccc4N4CC[C@H]3C4)c2)nn1 [Example 607]

Tryp AVG EC1.5 (μM) [3]: A (A (EC1.5<1 μM))
SMILES: Cc1cc(-c2ccc3c(n2)N(C(=O)Nc2cncc(C)n2)[C@H]2CCN3C2)ccn1 [Example 503]

Tryp AVG EC1.5 (μM) [3]: A (A (EC1.5<1 μM))
SMILES: NCc1ccc(NC(=O)N2c3nc(-c4cccc(C(F)(F)F)c4)ccc3N3CCC[C@H]2C3)cc1 [444 (4), (9S)—N-(4-(aminomethyl)phenyl)-2-(3-(trifluoromethyl)phenyl)-8,9-dihydro-6H-5,9-methanopyrido[2,3-b][1,4]diazocine-10(7H)-carboxamide hydrochloride]

Tryp AVG EC1.5 (μM) (Trp peptide substrate, concentration giving 150% activation of SIRT1): A (A (EC1.5<1 μM))
SMILES: O=C(Nc1cccc(-c2cnco2)c1)N1c2nc(-c3cccc(C(F)(F)F)c3)ccc2N2CC[C@H]1C2 [68 (1)]
